From paper PMC7766124, “Improved Cell Selectivity of Pseudin-2 via Substitution in the Leucine-Zipper Motif: In Vitro and In Vivo Antifungal Activity” (Antibiotics, 2020)
≈ marks a conversion by molar mass, not a printed value. Like-named read-outs stand apart in the source and are kept apart here. No end group written: not given here.

Columns and labels:
C. tropicalis = assay type: cell-based, C. tropicalis (KCTC 7221); conditions: 36 h
Source text: (§1) Aspergillus flavus (KCTC 6905), A. fumigatus (KCTC 6145), Fusarium moniliforme (KCTC 6149), F. oxysporum (KCTC 16909), C. albicans (KCTC 7270), C. krusei (CCARM 14017), C. parapsilosis (CCARM 14016), C. tropicalis (KCTC 7221), and T. beigelii (KCTC 7707) were obtained from the Korea Collection for Type Cultures (KCTC) and Culture Collection of Antimicrobial Resistant Microbes (CCARM). Mold and yeast fungi were pre-grown on potato dextrose (PD) and yeast extract peptone dextrose (YPD) agars, respectively.
(§2) Antifungal activity of peptides was performed by microtiter plate assays. Fungal conidia from four-day-old molds were collected using 0.08% Triton X-100 (v/v), and pre-cultivated yeast cells were adjusted to 2 × 10^4 spores/mL in 10 mM sodium phosphate buffer (SP, pH 7.2) or 10 mM 2-(N-morpholino)ethanesulfonic acid (MES) buffer (pH 5.5) supplemented with 20% culture medium, followed by addition to peptide solutions (0.25, 0.5, 1, 1.5, 2, 4, 6, 8, 12, 16, 32, 48, and 64 µM) in 96-well microtiter plates. After incubation for 36 h at 28 °C, the hyphal growth of conidia and the proliferation of yeast cells were observed under a light microscope. All assays were performed in triplicate. The MIC values were defined as the lowest concentration of samples that reduced fungal germination (for mold) or cell proliferation (for yeast) by more than 90% [34].

C. albicans = assay type: cell-based, C. albicans (KCTC 7270); conditions: 36 h
Source text: as §1, §2

[1] = Calcein leakage from fungus-mimic artificial vesicles; conditions: fungus-mimic PC/PE/PI/ergosterol vesicles, 20 μM lipid; peptide/lipid molar ratio 0.05; 100% = 0.03% Triton X-100; three independent experiments
Experimental: (§3) The permeability of peptides in calcein-entrapped artificial liposomes was assayed by measuring calcein leakage. The desired mixtures of lipids (PC/PE/PI/ergosterol, 5:4:1:2 and PC/CH/SM, 2:1:1, weight ratio) were dissolved in chloroform at 10 mg/mL, dried in a glass tube under nitrogen, and then lyophilized overnight to remove residual solvent. The dried lipid films were resuspended in 1 mL of dye solution (80 mM calcein, 10 mM HEPES buffer, pH 7.2) at 50 °C and vortexed, followed by freeze-thawing for nine cycles and extrusion with polycarbonate filters (0.2-μm pore-size) using an Avanti Mini-Extruder (Avanti Polar Lipids Inc., Alabaster, AL, USA). Free calcein was removed using PD-10 desalting columns (GE Healthcare Life Science, Seoul, Korea). Calcein-entrapped vesicles of 20 μM lipids were incubated with peptides at concentrations of […], 0.02, 0.05, and 0.1 molar ratio (peptide/lipid) and the fluorescence was assessed at 480 (Ex) and 520 (Em) nm using a microtiter SpectraMax M5 reader (Molecular Devices). Complete (100%) release was achieved by the addition of 0.03% Triton X-100 (v/v).

F. oxysporum = assay type: cell-based, F. oxysporum (KCTC 16909); conditions: 36 h
Source text: as §1, §2

F. moniliforme = assay type: cell-based, Fusarium moniliforme (KCTC 6149); conditions: 36 h
Source text: as §1, §2

C. tropicalis cells [2] = assay: Mitochondrial superoxide, MitoSOX Red flow cytometry; assay type: cell-based; conditions: peptide at MIC for 8 h
Experimental: Mitochondrial SOX was measured using MitoSOX Red probe. C. tropicalis cells (2 × 10^4 spores/mL) were treated with samples at the appropriate MIC for 8 h and then stained with MitoSOX Red according to the manufacturer’s instructions. The stained cells were acquired by flow cytometry (Attune NxT Acoustic Focusing Cytometer; ThermoFisher Scientific Co., Eugene, OR, USA) at 561 nm by 10,000 total events.

A. fumigatus = assay type: cell-based, A. fumigatus (KCTC 6145); conditions: 36 h
Source text: as §1, §2

C. tropicalis cells [3] = assay: SYTOX Green uptake (membrane permeability); assay type: cell-based; conditions: SP buffer pH 7.2, 0.5 μM SYTOX Green, peptides 1-64 µM, monitored 30 min
Experimental: C. tropicalis cells pre-grown at 28 °C were washed and suspended (2 × 10^6 cells/mL) in SP buffer (pH 7.2). The cells were pre-incubated with SYTOX Green (final concentration of 0.5 μM) for 15 min in the dark, followed by adding two-fold serial dilutions of peptides at concentrations of 1 to 64 µM. The fluorescence intensity was monitored for 30 min at 485 (Ex) and 520 (Em) nm using a microtiter SpectraMax M5 reader (Molecular Devices, San Jose, CA, USA).

T. beigelii = assay type: cell-based, T. beigelii (KCTC 7707); conditions: 36 h
Source text: as §1, §2

A. flavus = assay type: cell-based, Aspergillus flavus (KCTC 6905); conditions: 36 h
Source text: as §1, §2

C. parapsilosis = assay type: cell-based, C. parapsilosis (CCARM 14016); conditions: 36 h
Source text: as §1, §2

C. krusei = assay type: cell-based, C. krusei (CCARM 14017); conditions: 36 h
Source text: as §1, §2

mouse erythrocytes = assay: Hemolytic assay; assay type: cell-based; conditions: 64 µM peptide, 8% (v/v) mRBCs, 37 °C, 2 h (method) / 4 h (figure legend)
Experimental: Mouse blood was collected into sodium heparin-coated tubes (BD Vacutainer; BD Diagnostics, Oxford, UK). The mRBCs were obtained by centrifugation (800× g, 10 min) and washing with PBS. The washed mRBCs were added to a final concentration of 8% (v/v) in 64 µM peptide solution, followed by incubation for 2 h at 37 °C. After centrifugation, each tube was digitally recorded.

[4] = Calcein leakage from mammalian-mimic artificial vesicles; conditions: mammalian-mimic PC/CH/SM vesicles, 20 μM lipid; peptide/lipid molar ratio 0.1; 100% = 0.03% Triton X-100
Experimental: as §3

HaCaT cells = assay: Cytotoxicity, XTT cell viability assay; assay type: cell-based, human; conditions: peptides 4-256 µM, 24 h incubation, triplicate
Experimental: Cell viability was assessed using sodium XTT assays. HaCaT (human immortalized keratinocytes) cells were cultured in Dulbecco’s modified Eagle medium (DMEM; ThermoFisher Scientific, Gibco, Waltman, MA, USA) supplemented with antibiotic-antimycotic (ThermoFisher Scientific, Gibco) and 10% fetal bovine serum (FBS; ThermoFisher Scientific, Gibco) at 37 °C in a humidified chamber containing 5% CO2. The cells were seeded at 5 × 10^4 cells/mL in flat-bottom 96-well microtiter plates in triplicate. Twenty-four hours later, cells were treated with two-fold serial dilutions of peptides (ranging from 256 to 4 µM) in medium, and the cells were further incubated for 24 h. Next, activated-XTT solution was added to each well and the plates were additionally incubated for 4 h. Absorbance in each well was measured at wavelengths of 480 and 650 nm using a microtiter SpectraMax M5 reader (Molecular Devices, Sunnyvale, CA, USA). Triton X-100 (0.1% v/v) and DMEM were used as controls for survival.

[5] = 10 mM sodium phosphate buffer pH 7.2 with 20% culture medium, 28 °C, triplicate
[6] = acidic: 10 mM MES buffer pH 5.5 with 20% culture medium (value in parentheses), 28 °C, triplicate

Row | Compound | MIC (C. tropicalis; pH 5.5) | MIC (C. tropicalis; pH 7.2) | MIC (C. albicans; pH 5.5) | MIC (C. albicans; pH 7.2) | leakage of calcein [1] | MIC (F. oxysporum; pH 5.5) | MIC (F. oxysporum; pH 7.2) | MIC (F. moniliforme; pH 5.5) | MIC (F. moniliforme; pH 7.2) | MIC (A. fumigatus; pH 5.5) | MIC (A. fumigatus; pH 7.2) | SYTOX Green fluorescence intensity (C. tropicalis cells [3]) | MIC (T. beigelii; pH 5.5) | MIC (T. beigelii; pH 7.2) | MIC (A. flavus; pH 5.5) | MIC (A. flavus; pH 7.2) | MIC (C. parapsilosis; pH 5.5) | MIC (C. parapsilosis; pH 7.2) | MIC (C. krusei; pH 5.5) | MIC (C. krusei; pH 7.2) | other results
1 | GLNALKKVKQGKHEAIKLINNHVQ-NH2 [P2-LZ5] | 16 µM | 8 µM | 64 µM | 32 µM | 33.8% | 16 µM | 6 µM | 64 (>64) µM | 64 (>64) µM | > 64 µM | 16 µM | much lower than that in the presence of the other peptides | 32 µM | 8 µM | > 64 µM | 16 µM | >64 (>64) µM | >64 (>64) µM | 16 µM | 48 µM | MitoSOX Red fluorescence (mitochondrial SOX) (C. tropicalis cells [2]): significantly increased
2 | CC[C@H](C)[C@H](NC(=O)CN)C(=O)NCC(=O)N[C@@H](C)C(=O)N[C@H](C(=O)N[C@@H](CC(C)C)C(=O)N[C@@H](CCCCN)C(=O)N[C@H](C(=O)N[C@@H](CC(C)C)C(=O)N[C@H](C(=O)N[C@H](C(=O)NCC(=O)N[C@@H](CC(C)C)C(=O)N1CCC[C@H]1C(=O)N[C@@H](C)C(=O)N[C@@H](CC(C)C)C(=O)N[C@H](C(=O)N[C@@H](CO)C(=O)N[C@@H](Cc1c[nH]c2ccccc12)C(=O)N[C@H](C(=O)N[C@@H](CCCCN)C(=O)N[C@@H](CCCNC(=N)N)C(=O)N[C@@H](CCCCN)C(=O)N[C@@H](CCCNC(=N)N)C(=O)N[C@@H](CCC(N)=O)C(=O)N[C@@H](CCC(N)=O)C(N)=O)[C@@H](C)CC)[C@@H](C)CC)[C@@H](C)O)[C@@H](C)O)C(C)C)C(C)C [Melittin, reference compound] | – | – | – | – | 84.1% | – | – | – | – | – | – | gradual, concentration-dependent increases in fluorescence intensity | – | – | – | – | – | – | – | – | MIC (C. tropicalis; [5]): 16 µM (≈ 45.5 µg/mL); MIC (C. tropicalis; [6]): 8 µM (≈ 22.8 µg/mL); hemolytic effects (hemoglobin release, by visualization) (mouse erythrocytes): severe hemolysis; MIC (C. albicans; 10 mM sodium phosphate buffer pH 7.2 with 20% culture medium, 28 °C, >90% reduction of proliferation, triplicate): 32 µM (≈ 91.1 µg/mL); MIC (C. albicans; [6]): 8 µM (≈ 22.8 µg/mL); MIC (F. oxysporum; [5]): 64 µM (≈ 182 µg/mL); MIC (F. oxysporum; [6]): 32 µM (≈ 91.1 µg/mL); MIC (F. moniliforme; [5]): 32 (32) µM; MIC (F. moniliforme; [6]): 32 (32) µM; MIC (A. fumigatus; [5]): 6 µM (≈ 17.1 µg/mL); MIC (A. fumigatus; [6]): 4 µM (≈ 11.4 µg/mL); MIC (T. beigelii; [5]): 2 (2) µM; MIC (T. beigelii; [6]): 2 (2) µM; MIC (A. flavus; 10 mM sodium phosphate buffer pH 7.2 with 20% culture medium, 28 °C, >90% reduction of germination, triplicate): 6 µM (≈ 17.1 µg/mL); MIC (A. flavus; [6]): 4 µM (≈ 11.4 µg/mL); MIC (C. parapsilosis; [5]): 16 µM (≈ 45.5 µg/mL); MIC (C. parapsilosis; [6]): 8 µM (≈ 22.8 µg/mL); calcein efflux [4]: significant dye leakage; MIC (C. krusei; [5]): 8 µM (≈ 22.8 µg/mL); MIC (C. krusei; [6]): 4 µM (≈ 11.4 µg/mL)
3 | GLNALKKVFQGAHEAIKLANNHVQ-NH2 [P2-LZ3] | 2 (2) µM | 2 (2) µM | 16 µM | 8 µM | 48.3% | 16 µM | 4 µM | 32 µM | 64 µM | 16 µM | 64 µM | – | 2 µM | 6 µM | 32 µM | 64 µM | >64 (>64) µM | >64 (>64) µM | 8 (8) µM | 8 (8) µM | –
4 | GLNAAKKVFQGAHEAIKLINNHVQ-NH2 [P2-LZ1] | 2 µM | 4 µM | 32 µM | 8 µM | 81.8% | 12 µM | 4 µM | 48 (48) µM | 48 (48) µM | 16 µM | 64 µM | – | 2 (2) µM | 2 (2) µM | 12 µM | 64 µM | > 64 (>64) µM | > 64 (>64) µM | 8 (8) µM | 8 (8) µM | cytotoxic effects against HaCaT cells (HaCaT cells): significant, concentration-dependent cytotoxic effects
5 | GANALKKVAQGIHEAIKLINNHVQ-NH2 [P2-LZ2] | 1.5 µM | 2 µM | 32 µM | 4 µM | 77.0% | 16 µM | 2 µM | 16 µM | 24 µM | 16 µM | 24 µM | – | 2 (2) µM | 2 (2) µM | 12 µM | 32 µM | 64 µM | 48 µM | 4 µM | 6 µM | –
